Test results published in patent US7258861B2, “TNF-derived peptides for use in treating oedema” (Innogenetics N.V., priority 2001, dated 2007).
Several values for one entry are separate records, joined by “and”; a condition that tells them apart may be missing. Identical values can stand only once. Positions of bridges follow the written chain, without caps; N, C: chain ends. No end group written: not given here.

What was measured:
isolated rat lungs [1] = experiment: Isolated blood perfused flooded rat lung (weight, lung mechanics, PV curves, histology)
Description: (§1) Rats. For the ex vivo experiments, 31 Sprague-Dawley rats (300 to 350 g) were tracheotomized and mechanically ventilated (40% oxygen in air) under isoflurane anesthesia. The experimental protocol was reviewed and approved by the Ethics Committee for Animal Research and by the Veterinary Office of our institution. The femoral vessels were cannulated for blood sampling, fluid replacement, and continuous arterial blood pressure monitoring. Following anticoagulation (1.5 IU/g i.v. heparin), 20 ml of blood were withdrawn and replaced by an equal volume of dextran-40 (Macrodex 10% in normosaline) to serve as priming volume for the isolated perfusion circuit. The heart-lung block was prepared as described by Ma et al., 2000, weighed and assigned to one of four groups. […] The lungs were suspended, mechanically ventilated, and perfused at constant pressure with autologous blood as described by Ma et al., 2000.
(§2) An inspiratory and expiratory quasi-static pressure-volume (PV) curve was performed at the end of the 2-hour reperfusion period by inflating and then deflating the lungs at a constant rate (0.3 ml/sec) using an automated infusion pump. A sigh was applied in all groups every 15 minutes to minimize atelectasis formation. The blood pH was maintained between 7.3 and 7.5 and, if necessary, corrected with sodium bicarbonate 8.4% or a change of the inspired CO2 as required by the blood gas analysis. Every 30 minutes, a blood sample was collected for blood gas analysis as well as for hematocrit and electrolyte concentration.
(§3) Inclusion criteria. Immediately following the start of reperfusion, the preparation had to fulfill three technical inclusion criteria: • 1) left atrial pressure (LAP) 5-10 mmHg; • 2) peak airway pressure (AWP) <15 cmH2O; and • 3) pulmonary blood flow (PBF) >10 ml/min. […] The included lungs were then flooded with gentle intratracheal instillation of 2 ml normal saline and the recorded variables measured for 2 subsequent hours.
(§4) Histological analysis. Random lung samples were fixed for light and electron microscopy and analyzed by pathologists blinded to the lung's protocol group assignment.

isolated rat lungs [2] = system: isolated rat lungs
Description: as §1, §2, §3, §4

[3] = system: transplanted left lung of rats; experiment: Single left lung transplantation in syngeneic rats; assay type: in vivo, rat; conditions: 24 hours after transplantation; donor lung pre-treated by intratracheal application, 500 μg/kg
Description: Female Wistar of Fischer rats or weighting 250 to 260 g undergo orthotopic single left lung transplantation after 20 hours cold ischemia using a cuff technique for the vessel anastomoses and a conventional running suture for the bronchial anastomosis.
Donor procedure: Animals are anesthetized by intraperitoneal administration of pentobarbital (50 mg/kg) and heparinized (500 I.U./kg). A tracheotomy is performed and the animals are ventilated trough a cannula with 100% O2 by a Harvard rodent ventilator (Harvard apparatus, South Natick, Mass.) at a tidal volume of 10 ml/kg. […] Both lungs are flushed with 20 cc of low-potassium dextran-solution (LPD) (Perfadex®, Kabi Pharmacia, Sweden) at a pressure of 20 cm H2O. The trachea is then tied in end-inspiration. After removal of the heart-lung block, 14 gauge cuffs are placed around the pulmonary artery and vein, and the vessels are inverted and tied onto the cuff. The lung is stored in LPD solution at 4° C. until implantation.
Recipient procedure: Transplantation was performed after 20 hours of cold ischemia (4° C.). The recipient is anesthetized by breathing Halothane in a glass chamber, intubated, and anesthesia is maintained with Halothane 2%. A left lateral thoracotomy is performed in the 4th intercostal space. The left hilium is dissected. […]

[4] = system: left lung of Fischer (F344) rats; experiment: Rat model of lung reperfusion injury (warm ischemia and reperfusion); assay type: in vivo
Description: In a modification of the model of Ohno et al. (1993) male Fischer (F344) rats (200–250 g) undergo clamping of the left pulmonary artery, pulmonary vein and main bronchus for 36 minutes of warm ischemia. After reperfusion of the left lung, the right lung is occluded to assess the function of the left lung for 90 minutes. The peptide is given at 3 minutes after reperfusion by either instillation or intravenous injection via the subclavian vein.
• 1. Anaesthesia of the rat in a glass chamber, 4% Halothane and Oxygen 4/min. • 2. Intubation of the rat with a 1.8 mm catheter, • 3. Shaving the fur on the abdomen and left side of the animal. • 4. Ventilation via the tracheal tube 100/min, 2.5 ml 20% oxygen, Harvard Rodent Ventilator (Harvard Apparatus, South Natick, Mass.), PEEP 5 mm H2O. • 5. A left thoracotomy is carried out in the in 4th intercostal space. • 6. Dissection of the left lung hilar region. • 7. Microvascular clips are placed around the left pulmonary artery (PA), Pulmonary vein (PV) and left main bronchus (B) to induce warm ischemia of the left lung. Small circulation is still ongoing through the right lung. This is the start of the Warm Ischemia Time (WIT). • 8. Anaesthaesia is maintained with 2% Halothane, 40% Oxygen. • 9. A provisory Z suture is made to temporary close the thoracotomy and a gaze sponge is put on the animal to decrease warmth loss. • 10. Near the end of the WIT, a thoracophrenolaparatomy in the midline with thorough electrocaterisation. (two peans on the sternum). • 11. Putting 2-0 Softsilk on the trachea around the intubation tube. • 12. Dissection of the right hilar elements. • 13. Taking away microvascular clips from the left hilar elements. End of WIT of the left lung after 36 minutes. • 14. Putting microvascular clips on right PA and B. Small circulation only through left lung. Start developing of left oedema time (LLOT). • 15. After 3 minutes of LLOT: instillation of the drug in 0.5 ml of 0.9% saline solution (Baxter) or injection of the drug in 0.25–0.3 ml of 0.9% saline through the subclavian vein. • 16. After 6, 30, 60 and 90 minutes of LLOT, puncture of the Aortic Arch (AA) with needle for blood gas analysis in Radiometer ABL 700 Serie, (Denmark). • 17. After each puncture the AA puncture hole is pressed with a cotton swab. • 18. Blood gas analysis is taken every time from AA (the heart rate should be over 60). • 19. After the last blood gas analysis (90 minutes), both lungs are flushed via the PA with 20 ml of 0.9% saline at a pressure of 20 cm H2O. […] The heart-lung block is excised for storage under formaline or in the freezer awaiting immunohistopathological analysis. Alternatively, the lung can be excised without flushing to assess wet to dry ratio's. Results (FIG. 7)

[5] = system: ex vivo instilled rat lung; experiment: Ex vivo rat flooded lung, model of hydrostatic edema
Description: In this model edema is induced by instillating 2 ml of 0.9% NaCl solution intratracheally. Alternatively, edema formation can be modulated by varying the height of the venous outflow and the perfusion buffer containing reservoir, or alternatively by varying the time the lung is exposed to the elevated pressure. […] The clearance of alveolar fluid from the lung is calculated by means of measuring the concentration of HSA, which is added to the instillate over time. Alternatively, the over time weight loss as a measure of edema resorption (high weight loss is high liquid clearance), of the artificially instilled lung can be measured. The lung tidal volume, compliance and weight are monitored continuously during the experiment. At the end of the experiment bronchoalveolar fluid and supernatant of lung homogenate is taken for measurement of inflammatory mediators.
The lungs of female Wistar rats (weight 200–250 g; Harlan-Winkelmann, Borchen, Germany) are prepared after terminal i.p. anesthesia by 160 mg/kg pentobarbitural —Na (Merial Ltd, Halbermoos, Germany) and perfused as described by Uhlig and Wolin (1994), and by Uhlig and von Bethmann (1997). All equipment is obtained from Hugo Sachs Electronics (March-Hugstetten, Germany). […] As perfusion medium, a Krebs-Henseleit buffer (38° C.) containing 2% bovine serum albumin (Fraction V, Scrva. Heidelberg, Germany), 0.1% glucose (Riedel-de-Haën Inc., Seelze, Germany), and 0.3% HEPES (ICN Biomedicals Inc., Ohio, USA) is used. The total amount of recirculating buffer is 100 ml. The lungs are suspended by the trachea and ventilated by negative pressure ventilation (inspiratory pressure: −7 cm H2O, expiratory pressure: −2 cm H2O) with 80 breaths per minute resulting in a tidal volume of approximately 2 ml. Every 5 minutes, a deep inspiratory breath (−20 cm H2O) is performed. Artificial thorax chamber pressure is measured with a differential pressure transducer (Validyne DP 45-14), and an air flow velocity with a pneumotachograh tube (Fleisch Type 0000) connected to a differential pressure transducer (Validyne DP 45-15). The perfusate flow (Narcomatic RT-500) and the arterial and venous pressure (Statham P23BB) are continuously monitored. The pH of the perfusate before entering the lung is kept at 7.25 to 7.35 by automatic bubbling of the buffer with CO2 as soon as the pH exceeds this range. A weight transducer is integrated into the chamber lid which allows the continuous assessment of lung weight. Data are recorded on a Pentium II computer using the Mathlab Sofware package (Mathworks, Inc., Nattick Mass., USA). For lung mechanics, the data are analyzed by applying the following formula: P=1/C*VT+RLdV/dT
Where P is chamber pressure, C pulmonary compliance, VT tidal volume, and RL airway resistance. All lung physiology parameters were normalized to time point 0, i.e. after the end of the preconditioning perfusion of 40 minutes.

Sequence | lung weight change over time after alveolar flooding (isolated rat lungs [1]; 2 hours reperfusion after 2 ml saline, TNF 5 μg, peptides 1 mg) | lung mechanics (peak AWP, Cdyn, Raw) after alveolar flooding (isolated rat lungs [1]; 2 hours reperfusion, TNF 5 μg, peptides 1 mg) | fraction of intratracheal instilled saline lost (isolated rat lungs [1]; at 2 hours, 1 mg) | inflation volume at lower inflection point (isolated rat lungs [1]; end of 2-hour reperfusion, 1 mg) [mL] | lower inflection point of inspiratory quasi-static PV curve (isolated rat lungs [1]; end of 2-hour reperfusion, TNF 5 μg, peptide 1 mg) [cmH2O] | leukocyte infiltration (lung histology) (isolated rat lungs [2]) | pO2 [3] | pCO2 levels ([4]; 500 μg/kg to 5 μg/kg, data not shown) | pO2 blood gas levels ([4]; 6 to 90 minutes of LLOT, cyclic hum Ltip 500 μg/kg to 5 μg/kg, hum mut Tip 500 μg/kg) | gain in pO2 blood gas ([4]; iv application) | clearing alveolar fluid content ex vivo ([5]; after intratracheal instillation, summary in words) | activity in fluid clearance ([5]; measured 80 minutes after instillation, summary in words) | Weight loss of ex vivo instilled rat lung over 80 min ([5]; synthetic peptide 1000 μg/lung) | Weight loss of ex vivo instilled rat lung over 100 min ([5]; synthetic peptide 1000 μg/lung)
CGPKDTPEGAELKPWYC (disulfide 1-17; listed as Mus musculus) [cyclic mu Ltip] | progressively decreased in weight | progressive improvement in lung mechanics | approximately half | 3.4 ± 0.9 | 17.2±1.6 | did not show this increased leukocyte infiltration |  |  |  |  |  |  |  | 
CGQRETPEGAEAKPWYC [cyclic hum Ltip] |  |  |  |  |  |  | 395+/−95 mmHg | lower pCO2 levels | significantly much better pO2 levels | significantly increased gain in pO2 blood gas | capable of clearing alveolar fluid content | equally active | 658 mg and 585 mg and 663 mg and 648 mg and 575 mg and 931 mg and 900 mg and 918 mg | 1009 mg and 744 mg and 685 mg and 663 mg and 758 mg and 694 mg and 1004 mg and 1000 mg
